This note sets out measurements from ChEMBL document CHEMBL1144624, “1,2,3-Triazolylalkylribitol derivatives as nucleoside hydrolase inhibitors” (Bioorg Med Chem Lett, 2007).

Molecules are shown by their SMILES.

Usually Ki stands for the equilibrium dissociation constant of an inhibitor or competing ligand from its target.

The target in the assay is T1, IAG-nucleoside hydrolase (Trypanosoma vivax, UniProt Q9GPQ4).
T1 sequence (Q9GPQ4 whole entry): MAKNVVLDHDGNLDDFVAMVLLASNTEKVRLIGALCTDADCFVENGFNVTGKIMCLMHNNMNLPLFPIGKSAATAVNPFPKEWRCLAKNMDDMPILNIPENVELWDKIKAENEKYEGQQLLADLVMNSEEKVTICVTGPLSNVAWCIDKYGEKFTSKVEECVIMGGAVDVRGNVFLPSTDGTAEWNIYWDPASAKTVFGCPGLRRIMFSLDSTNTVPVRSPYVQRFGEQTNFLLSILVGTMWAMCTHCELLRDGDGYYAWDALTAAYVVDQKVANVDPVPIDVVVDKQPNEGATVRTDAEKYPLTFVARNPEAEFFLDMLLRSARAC
The assay can be described thus: Inhibition of Trypanosoma vivax IAG-nucleoside hydrolase.
Regarding `Cc1c(-c2ccccc2)nnn1C[C@@H]1O[C@H](CO)[C@@H](O)[C@H]1O`, the Ki came to 87 µM.
As for `OC[C@H]1O[C@@H](CCn2cc(-c3ccccc3)nn2)[C@H](O)[C@@H]1O`, the Ki amounted to 21 µM.
Molecule `Cc1nnn(C[C@@H]2O[C@H](CO)[C@@H](O)[C@H]2O)c1-c1ccccc1` gave a Ki of 520 µM.
Then `Cc1nnn(CC[C@@H]2O[C@H](CO)[C@@H](O)[C@H]2O)c1-c1ccccc1`, with 32 µM; and `[N-]=[N+]=NCC[C@@H]1O[C@H](CO)[C@@H](O)[C@H]1O`, with 5600 µM.
The value for `CCc1nnn(CC[C@@H]2O[C@H](CO)[C@@H](O)[C@H]2O)c1CC` was 63 µM; that for `Cc1c(-c2ccccc2)nnn1CC[C@@H]1O[C@H](CO)[C@@H](O)[C@H]1O` was 2.3 µM.
The value for `OC[C@H]1O[C@@H](CCn2cc(-c3ccccn3)nn2)[C@H](O)[C@@H]1O` was 23 µM; that for `OC[C@H]1O[C@@H](CCn2nncc2-c2ccccc2)[C@H](O)[C@@H]1O` was 680 µM.
